Columns and labels:
Assay in all cases: Bifunctional ligand: Ad5Luc3 attachment to peptide-pretreated cells, luciferase activity
Settings in all cases: 500 μM peptide, 1 h at 0-4° C. before Ad5Luc3
HeLa cells = format: cell-based, human
Method: (§1) The human cells (HeLa) or murine cells (Swiss-3T3 or NIH-3T3, ATCC CRL-1658) are rinsed and incubated between 0 and 4° C. with an isotonic solution (PBS) containing 500 μM of peptide. After 1 h, the solution is removed and replaced with the viral inoculum (Ad5Luc3) according to a protocol already described (see above or Hong et al., 1997, EMBO J. 16, 2294-2306). The virus is incubated for 1 hour between 0 and 4° C. to allow its attachment, and then the excess nonadsorbed virus is rinsed with culture medium precooled to 4° C. and the cells are again placed at 37° C. in the presence of culture medium preheated to 37° C. The virus is endocytosed at 37° C. and the viral cycle then lasts for 18 to 20 h at 37° C.

Swiss-3T3 cells = format: cell-based, murine
Method: as §1

NIH-3T3 cells = format: cell-based, murine
Method: as §1

Substance | increase in the luciferase activity (number of adsorbed viruses) versus no peptide (HeLa cells) | increase in the luciferase activity (number of adsorbed viruses) versus no peptide (Swiss-3T3 cells) | increase in the luciferase activity (number of adsorbed viruses) versus no peptide (NIH-3T3 cells)
GRP-MH20: bifunctional peptide with reverse orientation, GRP at N-terminus and MH20 at C-terminus, SEQ ID No: 23 (KMYPRGNHWAVGHLMRAIVGFRVQWLRRYFVNGSR; listed as Homo sapiens) | five to six times | two to three times | eight to ten times
MH20-GRP: bifunctional peptide, MH20 at N-terminus fused to GRP (Gastrin Releasing Peptide), SEQ ID No: 22 (RAIVGFRVQWLRRYFVNGSRKMYPRGNHWAVGHLM; listed as Homo sapiens) | identical slope | identical slope | identical slope
